# Source: US6709873B1, “Method for production of antibodies to specific sites of rapamycin” (Isodiagnostika Inc., priority 1997, dated 2004)
# What was measured:
# [1] = system: lymphocytes; assay: In vitro mixed lymphocyte reaction (MLR) assay, two-way lymphocyte proliferation; assay type: cell-based; details: Lymphocyte, 3H-thymidine incorporation
# Excerpt: The MLR assay is useful for identifying rapamycin metabolites with biological (immunosupressive) activity and to quantify this activity relative to the immunosuppressive activity of the parent rapamycin molecule.
# An example of a two-way lymphocyte proliferation assay procedure useful for this purpose is as follows:
# 1. Collect blood from two individuals (20 mls each) and isolate lymphocytes using Ficoll-Paque™ (polysucrose and sodium diatrizoate) (Pharmacia Biotech).
# 2. Count lymphocytes at 1:10 dilution in 2% acetic acid (v/v).
# 3. Prepare 10 mls of each lymphocyte populations (A+B) at 1×10^6 cells/ml in DMEM/20% FCS (v/v).
# 4. Set up a 96 well sterile tissue culture plate, flat bottom (Sarstedt, cat # 83.1835). To each well add:
# 5. Aliquot 100 μl per well lymphocyte population A
# 6. Aliquot 100 μl per well lymphocyte population B
# 7. Aliquot 20 μl per well of drug (rapamycin and rapamycin metabolites M1-5) serially diluted 0 to 1000 μg/L in triplicate in DMEM with no supplements.
# 8. […]
# 10. […] Wash cells 3× with 1.0-ml sterile distilled water.
# Note: All procedures are done using sterile techniques in a biological flow hood.
# 11. Place filters in Scintilation vials and add 1.5 mls of ScintiSafe Plus™ 50% scintillation fluid (Fisher, cat #SX-25-5).
# 12. Measure the amount of radioactivity incorporated in the lymphocytes using a beta counter (Micromedic System Inc., TAURUS™ Automatic Liquid Scintillation Counter) for 1.0 minute.
# 13. Calculate averages and standard deviations for each drug and express results as: [formula]
# [2] = [14C]-rapamycin, healthy male volunteers; cited from earlier work
# [3] = Relative concentrations of Rapa metabolites in pooled whole blood patient samples (LC/MS); assay type: in vivo; details: Rapa = 1
# Excerpt: No individual metabolite is found at a concentration greater than 20% of the Rapa parent level.
smiles,measurement,setting,value
"CO[C@H]1C[C@@H]2CC[C@@H](C)[C@@](O)(O2)C(=O)C(=O)N2CCCC[C@H]2C(=O)O[C@H]([C@H](C)C[C@@H]2CC[C@@H](O)[C@H](OC)C2)CC(=O)[C@H](C)/C=C(\C)[C@@H](O)[C@@H](OC)C(=O)[C@H](C)C[C@H](C)/C=C/C=C/C=C/1C [Rapa, Rapamycin]",IC50,[1],0.48 ng/mL
same,share of the total radioactivity in blood,[2],approximately 35%
same,Relative Concentration in whole blood,[3],1
